By melting point is commonly meant the temperature of the solid-liquid transition. The compound `CCCn1c(COCC)nc2c(N)nc3ccc(OCCCN4CCCC4=O)cc3c21` [Example 405, 1-(3-{[4-Amino-2-(ethoxymethyl)-1-propyl-1H-imidazo[4,5-c]quinolin-8-yl]oxy}propyl)pyrrolidin-2-one] gave a melting point of 188.5 to 190 °C.
Consider `CCCn1c(COCC)nc2c(N)nc3ccc(OC4CCOC4)cc3c21` (stereo not drawn) [Example 406, 2-(Ethoxymethyl)-1-propyl-8-(tetrahydrofuran-3-yloxy)-1H-imidazo[4,5-c]quinolin-4-amine], for which the melting point lay within 173 to 175 °C.
`CCCn1c(COCC)nc2c(N)nc3ccc(OCCCCCCNC(=O)C(C)C)cc3c21` [Example 407, N-(6-{[4-Amino-2-(ethoxymethyl)-1-propyl-1H-imidazo[4,5-c]quinolin-8-yl]oxy}hexyl)-2-methylpropanamide] displayed a melting point of 136 to 138 °C.
Consider `CCCn1c(COCC)nc2c(N)nc3ccc(OCCCCCCNC(=O)NC(C)C)cc3c21` [Example 408, N-(6-{[4-Amino-2-(ethoxymethyl)-1-propyl-1H-imidazo[4,5-c]quinolin-8-yl]oxy}hexyl)-N′-isopropylurea], for which the melting point lay within 167 to 169 °C.
As for `CCCn1c(COCC)nc2c(N)nc3ccc(OCCCCCCNS(C)(=O)=O)cc3c21` [Example 409, N-(6-{[4-Amino-2-(ethoxymethyl)-1-propyl-1H-imidazo[4,5-c]quinolin-8-yl]oxy}hexyl)methanesulfonamide], the melting point lay within 164 to 167 °C.
As for `CCCn1c(COCC)nc2c(N)nc3ccc(OC4CCN(C(=O)OC(C)(C)C)CC4)cc3c21` [Example 410, tert-Butyl 4-{[4-amino-2-(ethoxymethyl)-1-propyl-1H-imidazo[4,5-c]quinolin-8-yl]oxy}piperidine-1-carboxylate], the melting point was in the range of 179.5 to 181 °C.
Compound `CCCn1c(COCC)nc2c(N)nc3ccc(OC4CCNCC4)cc3c21` [Example 411, 2-(Ethoxymethyl)-8-(piperidin-4-yloxy)-1-propyl-1H-imidazo[4,5-c]quinolin-4-amine] gave a melting point of 176 to 178 °C.
For `CCCn1c(COCC)nc2c(N)nc3ccc(OC4CCN(C(=O)NC(C)C)CC4)cc3c21` [Example 412, 4-{[4-Amino-2-(ethoxymethyl)-1-propyl-1H-imidazo[4,5-c]quinolin-8-yl]oxy}-N-isopropylpiperidine-1-carboxamide], the melting point fell in the range of 236.5 to 239 °C.
Then `CCCn1c(COCC)nc2c(N)nc3ccc(OC4CCN(S(C)(=O)=O)CC4)cc3c21` [Example 413, 2-(Ethoxymethyl)-8-{[1-(methylsulfonyl)piperidin-4-yl]oxy}-1-propyl-1H-imidazo[4,5-c]quinolin-4-amine], with 240 to 243.5 °C; and `CCCn1c(COCC)nc2c(N)nc3ccc(OC4CCN(C(=O)C(C)C)CC4)cc3c21` [Example 414, 2-(Ethoxymethyl)-8-[(1-isobutyrylpiperidin-4-yl)oxy]-1-propyl-1H-imidazo[4,5-c]quinolin-4-amine], with 177 to 179 °C; and `CCCn1c(COCC)nc2c(N)nc3cc(OC4CCN(C(=O)OC(C)(C)C)CC4)ccc3c21` [Example 415, tert-Butyl 4-{[4-amino-2-(ethoxymethyl)-1-propyl-1H-imidazo[4,5-c]quinolin-7-yl]oxy}piperidine-1-carboxylate], with 194 to 195 °C.
The same measure for `CCCn1c(COCC)nc2c(N)nc3cc(OC4CCNCC4)ccc3c21` [Example 416, 2-(Ethoxymethyl)-7-(piperidin-4-yloxy)-1-propyl-1H-imidazo[4,5-c]quinolin-4-amine]: 202 to 204 °C.
Compound `CCCn1c(COCC)nc2c(N)nc3cc(OC4CCN(C(=O)NC(C)C)CC4)ccc3c21` [Example 417, 4-{[4-Amino-2-(ethoxymethyl)-1-propyl-1H-imidazo[4,5-c]quinolin-7-yl]oxy}-N-isopropylpiperidine-1-carboxamide] returned a melting point of 163 to 164.5 °C.
For the compound `CCc1nc2c(N)nc3cc(OCCNC(=O)OC(C)(C)C)ccc3c2n1CC1CCOCC1` [Example 551, tert-Butyl 2-{[4-amino-2-ethyl-1-(tetrahydro-2H-pyran-4-ylmethyl)-1H-imidazo[4,5-c]quinolin-7-yl]oxy}ethylcarbamate], the melting point fell in the range of 200 to 201 °C.
Compound `CCc1nc2c(N)nc3cc(OCC(=O)N4CCOCC4)ccc3c2n1CC1CCOCC1` [Example 553, 2-Ethyl-7-(2-morpholin-4-yl-2-oxoethoxy)-1-(tetrahydro-2H-pyran-4-ylmethyl)-1H-imidazo[4,5-c]quinolin-4-amine] displayed a melting point of 245 to 247 °C.
`CCCn1c(COC)nc2c(N)nc3ccc(OCCCN4CCOCC4)cc3c21` [Example 554, 2-Methoxymethyl-8-(3-morpholin-4-ylpropoxy)-1-propyl-1H-imidazo[4,5-c]quinolin-4-amine] returned a melting point of 193 to 196 °C.
Consider `CCCn1c(COC)nc2c(N)nc3ccc(OCCCOC(=O)N4CCOCC4)cc3c21` [Example 555, 3-{[4-Amino-2-(methoxymethyl)-1-propyl-1H-imidazo[4,5-c]quinolin-8-yl]oxy}propyl morpholine-4-carboxylate], for which the melting point lay within 173 to 174 °C.
For the compound `CCCn1c(COC)nc2c(N)nc3ccc(OCC(=O)N4CCSCC4)cc3c21` [Example 556, 2-(Methoxymethyl)-8-(2-oxo-2-thiomorpholin-4-ylethoxy)-1-propyl-1H-imidazo[4,5-c]quinolin-4-amine], the melting point lay in the range of 214 to 216 °C.
Then `CCCn1c(COC)nc2c(N)nc3ccc(OCC(=O)N4CCOCC4)cc3c21` [Example 557, 2-(Methoxymethyl)-8-(2-morpholin-4-yl-2-oxoethoxy)-1-propyl-1H-imidazo[4,5-c]quinolin-4-amine], with 201 to 204 °C.
The compound `CCCn1c(COC)nc2c(N)nc3ccc(OCC4CCCN(C)C4)cc3c21` (stereo not drawn) [Example 558, 2-Methoxymethyl-8-(1-methylpiperidin-3-ylmethoxy)-1-propyl-1H-imidazo[4,5-c]quinolin-4-amine] displayed a melting point of 194 to 196 °C.
The same measure for `CCCn1c(COC)nc2c(N)nc3ccc(OCCN4CCCCC4)cc3c21` [Example 559, 2-Methoxymethyl-8-(2-piperidin-1-ylethoxy)-1-propyl-1H-imidazo[4,5-c]quinolin-4-amine]: 160 to 162 °C.
Then `CCCn1c(COCC)nc2c(N)nc3cc(OC4CCN(C(C)=O)CC4)ccc3c21` [Example 560, 7-[(1-Acetylpiperidin-4-yl)oxy]-2-(ethoxymethyl)-1-propyl-1H-imidazo[4,5-c]quinolin-4-amine], with 178 to 179.5 °C.
Consider `CCCn1c(COCC)nc2c(N)nc3cc(OC4CCN(S(C)(=O)=O)CC4)ccc3c21` [Example 561, 2-(Ethoxymethyl)-7-{[1-(methylsulfonyl)piperidin-4-yl]oxy}-1-propyl-1H-imidazo[4,5-c]quinolin-4-amine], for which the melting point is 215 to 217 °C.
With `CCOCc1nc2c(N)nc3cc(OC4CCN(C(=O)OC(C)(C)C)CC4)ccc3c2n1CC(C)(C)O` [Example 563, tert-Butyl 4-{[4-amino-2-(ethoxymethyl)-1-(2-hydroxy-2-methylpropyl)-1H-imidazo[4,5-c]quinolin-7-yl]oxy}piperidine-1-carboxylate], the melting point is 214 to 215 °C (dec.).

The values are drawn from patent US9856254B2, “Alkoxy substituted imidazoquinolines” (3M INNOVATIVE PROPERTIES COMPANY, priority 2003, dated 2018).
